In US20260207450A1, “ANTI-DANDRUFF COMPOSITIONS” (Firmenich SA, priority 2022, published 2026):
Converted amounts (≈) assume the structure as drawn.

What was measured:
[1] = test system: M. restricta ATCC MYA-4611; assay: Disc-diffusion assay, perfumery materials in Shampoo Base B, M. restricta; format: cell-based, Malassezia restricta; settings: 0.25% perfumery material in 25% Shampoo Base B solution, 6 mm disc, 6 days
Source text: (§1) The present inventors sought to investigate how whether the anti-dandruff effect of compounds and compositions could be used in shampoo formulations. For this reason, they prepared two shampoo bases. Shampoo Base A is a composition with Sodium Laureth Sulfate and cocamidopropyl betaine as the primary ingredients, while Shampoo Base B is a composition with Ammonium Lauryl Sulfate and Ammonium Laureth Sulfate as primary ingredients. Anti-Malassezia effect of perfumery materials in shampoo was determined using disc-diffusion assay, based on the method of J Mycol Infect 2018; 23: 91-98. […] Aliquots (20 μL) of each sample solution was added to each disc. Agar plates were incubated at 30° C. for 6 days. After incubation, diameters of the clear inhibition zones around the discs were measured.

[2] = test system: M. globosa ATCC MYA-4612; assay: Disc-diffusion assay, perfumery materials in Shampoo Base B, M. globosa; format: cell-based, Malassezia globosa; settings: 0.25% perfumery material in 25% Shampoo Base B solution, 6 mm disc, 6 days
Source text: as §1

[3] = test system: Staphylococcus aureus ATCC 6538; assay: MIC assay on Staphylococcus aureus ATCC 6538; format: cell-based; settings: Staphylococcus aureus, ATCC6538; TSB, 37° C., 24 h aerobically; dilutions 29 to 10000 ppm; read-out: MIC (ppm) S. aureus
Description: MIC assay for Staphylococcus aureus ATCC 6538 is based on Clinical Laboratory Standard Institute: CLSI/NCCLS M07-A8. Cell suspension of working cultures of S. aureus was prepared following the instructions of culture provider ATCC, USA.
(§2) A total of 26 perfumery materials were examined for an inhibition effect on Malassezia furfur and Staphylococcus aureus.

[4] = test system: Malassezia furfur DSM 6170; assay: MIC assay on Malassezia furfur DSM 6170 (resazurin); format: cell-based; settings: Malassezia furfur, DSM6170; 30° C., 48 h aerobically; dilutions 29 to 10000 ppm
Description: The MIC assay for Malassezia furfur DSM 6170 was modified based on the method in Journal of Clinical Microbiology 2017, Vol 55: 1883-1893. In brief, working culture was prepared from stock cultures stored at −80° C. to obtain a cell suspension as the inoculum. Serial dilutions of samples, 29 to 10000 ppm, were tested to determine the MIC values for growth of Malassezia furfur DSM 6170 after at 30° C. for 48 h aerobically. Resazurin was used as growth indicator.
as §2

[5] = test system: M. furfur DSM 6170; assay: Disc-diffusion assay, perfumery materials in DMSO, M. furfur; format: cell-based, Malassezia furfur; settings: Malassezia furfur, DSM6170, 72 h
Description: (§3) Anti-Malassezia effect of perfumery materials in solvent in DMSO was determined using disc-diffusion assay, based on the method of J Mycol Infect 2018: 23: 91-98. In brief, working cultures of Malassezia strains were prepared from −80 C stock culture on mDixon agar plate (for M. furfur DSM 6170) or mLN agar plate (for M. restricta ATCC MYA-4611 and M. globosa ATCC MYA-4612), and cells were suspended in 0.9% saline, and spread onto mDixon or mLN agar surface to prepare lawn plate. Test samples solutions are prepared in DMSO to final concentrations of 0.2%, 1% or 2%. Discs (Whatman, 6 mm in diameter) were placed on inoculated agar plates with each Malassezia strains respectively, including M. furfur DSM 6170, M. restricta ATCC MYA-4611, and M. globosa ATCC MYA-4612. Aliquots (20 μL) of each sample solution was added to each disc. Agar plates were incubated at 30° C. for 3 days for M. furfur DSM 6170, and 6 days for M. restricta ATCC MYA-4611, and M. globosa ATCC MYA-4612. After incubation, diameters of the clear inhibition zones around the discs were measured. Inhibition zone greater than 6 mm are regarded as having anti-Malassezia effect.

[6] = test system: M. restricta ATCC MYA-4611; assay: Disc-diffusion assay, perfumery materials in DMSO, M. restricta; format: cell-based, Malassezia restricta; settings: Malassezia restricta, 144 h
Description: as §3

[7] = test system: M. globosa ATCC MYA-4612; assay: Disc-diffusion assay, perfumery materials in DMSO, M. globosa; format: cell-based, Malassezia globosa; settings: Malassezia globosa, 144 h
Description: as §3

[8] = test system: M. furfur DSM 6170; assay: Disc-diffusion assay, (2E,6Z)-2,6-nonadienal with anti-dandruff actives in DMSO, M. furfur; format: cell-based, Malassezia furfur; settings: 3 days
Description: The anti-Malassezia effect of perfumery materials in combination of anti-dandruff actives using the disk-diffusion assay, modified based on the method of J Mycol Infect 2018; 23: 91-98. working culture of M. furfur DSM 6170 was prepared from −80 C stock culture on mDixon agar plate, and cells were suspended in 0.9% saline, and spread onto mDixon agar surface to prepare lawn plates. Discs (Whatman, 6 mm in diameter) were placed on inoculated mDixon agar plates. Test sample solutions are prepared in DMSO. Aliquots (20 μL) of each sample solution was added to each disc. Agar plates were incubated at 30° C. for 3 days. After incubation, diameters of the clear inhibition zones around the discs were measured.

[9] = test system: M. restricta; assay: Disc-diffusion assay, combinations with piroctone olamine (PO) in DMSO, M. restricta; format: cell-based, Malassezia restricta; settings: 4 days, ratio greater than 1.0 = boosting effect
Description: Anti-Malassezia effect of combinations of PO and perfumery materials in solvent DMSO against M. restricta was determined using disc-diffusion assay as described above. Aliquots (20 μL) of each sample solution was added to each disc. Agar plates were incubated at 30° C. for 4 days. After incubation, diameters of the clear inhibition zones around the discs were measured. Ratio of inhibition zone diameter of each combination to that of PO only were calculated. […] Anti-Malassezia effect of combinations of PO and perfumery raw materials mixtures in solvent DMSO was determined using disc-diffusion assay, as described above. Aliquots (20 μL) of each sample solution was added to each disc. Agar plates were incubated at 30° C. for 4 days. After incubation, diameters of the clear inhibition zones around the discs were measured. Ratio of inhibition zone diameter of each combination to that of PO only were calculated.

[10] = test system: M. restricta ATCC MYA-4611; assay: Cylinder diffusion assay, hair conditioner base with 0.35% PO and mixtures, M. restricta; format: cell-based, Malassezia restricta; settings: conditioner containing 0.35% PO without mixture; 25% conditioner solution, 80 μL cylinder, 4 days
Description: A hair conditioner base was prepared. The main components included water, cetyl alcohol, MIRASIL® ADME-NP (water (and) amodimethicone (and) trideceth-6), stearyl alcohol, behentrimonium methosulfate (and) Isopropanol.
Anti-Malassezia effect of hair conditioners was determined using cylinder diffusion assay that was used for testing shampoos, as described above. In brief, working cultures of M. restricta ATCC MYA-4611 and inoculated as described in disc diffusion assay. Cylinders were placed on inoculated agar plates. Aliquots (80 μL) of each sample (25% conditioner solution) were added to each cylinder. Agar plates were incubated at 30° C. for 4 days. After incubation, diameters of the clear inhibition zones around the discs were measured.

Compound | Inhibition zone (mm) M. restricta [1] [mm] | Inhibition zone (mm) M. globosa [2] [mm] | MIC [3] [µg/mL] | MIC [4] [µg/mL] | zone of inhibition at 2 % [5] [mm] | zone of inhibition at 0.2 % [6] [mm] | zone of inhibition at 1 % [6] [mm] | zone of inhibition at 2 % [6] [mm] | further results
C=CCc1ccc(O)c(OC)c1 [2-methoxy-4-(2-propen-1-yl)phenol] | 7.3 | 8.2 | – | – | – | – | – | – | –
CCCc1cccc(O)c1 [3-propylphenol] | 7.7 | 10.2 | – | – | – | – | – | – | –
CC/C=C\CC/C=C/C=O [(2E,6Z)-2,6-nonadienal] | 11.1 | 12.8 | 233 (≈ 1690 µM) | 44 (≈ 318 µM) | 13.5 | 7.7 | > 40 | > 40 | zone of inhibition at 0.2 % [7]: 12.4 mm; zone of inhibition at 1 % [7]: > 40 mm; Inhibition zone (mm) on M. furfur ([8]; Table 5, 0.75% in DMSO, 6 mm disc): 7.6 mm; Inhibition zone (mm) on M. furfur ([8]; Table 6, 1% in DMSO): 11.4 mm; Inhibition zone (mm) on M. furfur ([8]; Table 7, 1% in DMSO): 14.1 mm; Ratio of inhibition zone diameter (0.2% PRM + 0.1% PO) to 0.1% PO [9]: 1.2; Ratio of inhibition zone diameter (0.5% PRM + 0.1% PO) to 0.1% PO [9]: 3.4
Cc1cc(CC(C)CC(C)(C)C)n(O)c(=O)c1.NCCO (stereo not drawn) [Piroctone Olamine (PO), Piroctone Olamine] | – | – | – | – | – | – | – | – | Inhibition zone (mm) on M. furfur ([8]; Table 5, 0.19% in DMSO, 6 mm disc): 11.8 mm; Inhibition zone diameter (mm) against M. restricta [10]: No inhibition zone
O=C/C=C/c1ccccc1 [cinnamaldehyde, (E)-3-phenyl-2-propenal] | – | – | 293 (≈ 2220 µM) | 99 (≈ 749 µM) | 16.5 | 8.4 | 34.5 | 33.3 | zone of inhibition at 1 % [7]: 17.6 mm; zone of inhibition at 2 % [7]: 27.4 mm; Ratio of inhibition zone diameter (0.2% PRM + 0.1% PO) to 0.1% PO [9]: 1.4; Ratio of inhibition zone diameter (0.2% PRM + 0.35% PO) to 0.35% PO [9]: 1.3; Ratio of inhibition zone diameter (0.5% PRM + 0.1% PO) to 0.1% PO [9]: 3.4
CC(C)=CCC/C(C)=C/C=O [citral, (Z)-3,7-dimethyl-2,6-octadienal+(E)-3,7-dimethyl-2,6-octadienal] | – | – | 450 (≈ 2960 µM) | 222 (≈ 1460 µM) | 8.6 | 6.2 | 7.1 | > 40 | zone of inhibition at 0.2 % [7]: 6.2 mm; zone of inhibition at 2 % [7]: 8.7 mm; Ratio of inhibition zone diameter (1% PRM + 0.35% PO) to 0.35% PO [9]: 1.1
CC(=O)N1CCN(c2ccc(OCC3COC(Cn4ccnc4)(c4ccc(Cl)cc4Cl)O3)cc2)CC1 (stereo not drawn) [ketoconazole] | – | – | – | – | – | – | – | – | Inhibition zone (mm) on M. furfur ([8]; Table 7, 0.1% in DMSO): 22.3 mm; Inhibition zone (mm) on M. furfur ([8]; Table 7, 0.2% in DMSO): 24.6 mm; Inhibition zone (mm) on M. furfur ([8]; Table 7, 0.3% in DMSO): 24.5 mm; Inhibition zone (mm) on M. furfur ([8]; Table 7, 0.4% in DMSO): 24.9 mm
